Laboratory results published in US20230286968A1, “ARYLOXAZOLO SPIRAL RING DERIVATIVES FOR THE TREATMENT AND PROPHYLAXIS OF HEPATITIS B VIRUS INFECTION” (Hoffmann-La Roche Inc., priority 2020, published 2023).

How the values were obtained:
HBsAg = assay: PHH natural infection assay, HBsAg (alphalisa); type: cell-based, HBV; settings: Hepatitis B virus, Hepatocyte, read-out: HBsAg IC50, HBV-infected primary human hepatocytes, supernatant, alphalisa
Outline: (§1)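 Cryopreserved PHH plated 24 h, infected with HBV at 200 GE/cell plus 4% PEG8000 for 24 h, then sandwich-cultured 72 h with 0.25 mg/mL matrix gel. Compounds at varied concentrations applied twice at 72-h intervals. Supernatant HBsAg and HBeAg measured by AlphaLISA with specific antibodies.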

[1] = Cytotoxicity in PHH natural infection assay (Cell Counting Kit-8); type: cell-based; settings: HBV-infected primary human hepatocytes, CCK8
Outline: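 HBV-infected primary human hepatocytes (200 GE/cell, 4% PEG8000, 24 h), sandwich-cultured 72 h, then given compound-containing medium twice at 72 h intervals. Cytotoxicity read by CCK-8 at end of treatment.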

HBeAg = assay: PHH natural infection assay, HBeAg (alphalisa); type: cell-based, HBV; settings: Hepatitis B virus, Hepatocyte, read-out: HBeAg IC50, HBV-infected primary human hepatocytes, supernatant, alphalisa
Outline: as §1

| Structure (SMILES) | IC50 (HBsAg) [nM] | CC50 at 144 h [1] [nM] | IC50 (HBeAg) [nM] |
| --- | --- | --- | --- |
| O=C(NC1CC2(C1)CC(c1nc3cc(Cl)ccc3o1)C2)c1ccnc(S(=O)(=O)C2CNC2)c1 (stereo not drawn) [Example 98, 2-(Azetidin-3-ylsulfonyl)-N-[6-(5-chloro-1,3-benzoxazol-2-yl)spiro[3.3]heptan-2-yl]pyridine-4-carboxamide] | 3590 | > 10000 | 3080 |
| CC(=O)NS(=O)(=O)c1cc(C(=O)NC2CC3(C2)CC(c2nc4cc(Cl)ccc4o2)C3)ccn1 (stereo not drawn) [Example 99, 2-(Acetylsulfamoyl)-N-[6-(5-chloro-1,3-benzoxazol-2-yl)spiro[3.3]heptan-2-yl]pyridine-4-carboxamide] | 2100 | > 10000 | 1330 |
| O=C(NC1CC2(C1)CC(c1nc3cc(Cl)ccc3o1)C2)c1ccnc(S(=O)(=O)CC2CC2)c1 (stereo not drawn) [Example 100, N-[6-(5-chloro-1,3-benzoxazol-2-yl)spiro[3.3]heptan-2-yl]-2-(cyclopropylmethylsulfonyl)pyridine-4-carboxamide] | 590 | > 10000 | 440 |
| NC(=O)c1cc(C(=O)NC2CC3(C2)CC(c2nc4cc(Cl)ccc4o2)C3)ccn1 (stereo not drawn) [Example 101, N4-[6-(5-chloro-1,3-benzoxazol-2-yl)spiro[3.3]heptan-2-yl]pyridine-2,4-dicarboxamide] | 320 | > 100000 | 220 |
| CNC(=O)c1cc(C(=O)NC2CC3(C2)CC(c2nc4cc(Cl)ccc4o2)C3)ccn1 (stereo not drawn) [Example 102, N4-[6-(5-chloro-1,3-benzoxazol-2-yl)spiro[3.3]heptan-2-yl]-N2-methyl-pyridine-2,4-dicarboxamide] | 2690 | > 10000 | 2280 |
| CN(C)C(=O)c1cc(C(=O)NC2CC3(C2)CC(c2nc4cc(Cl)ccc4o2)C3)ccn1 (stereo not drawn) [Example 103, N4-[6-(5-chloro-1,3-benzoxazol-2-yl)spiro[3.3]heptan-2-yl]-N2,N2-dimethyl-pyridine-2,4-dicarboxamide] | 5630 | > 10000 | 4020 |
